Tested on: 349418-098-R-PDC complex spheroid viability
Assay: Anticancer human tumor 349418-098-R-PDC patient-derived lung adenocarcinoma cell line growth inhibition [RAS]
Conditions: for IC50: curve of first compound; for viability, T/C: stronger effect = lower value; active = viability on the fitted dose curve at most 10% of control; inactive = the rest
Excerpt: RAS pathway inhibitors in Combinations in Complex Spheroids
A high-throughput screen of multi-cell type tumor spheroids was designed to identify active combinations of RAS pathway inhibitors and targeted small molecules. Complex spheroids include a stromal component modeled by human endothelial cells (HUVEC) and fibroblasts modeled by human mesenchymal stem cells (MSCs). The concentration ranges selected for each drug and investigational agent were based upon clinically achievable concentrations if the clinical Cmax of the agent was known.
Compounds. The drugs and investigational agents: abemaciclib (NSC768073), cobimetinib (NSC768068), divarasib (GDC6063, NSC841802), docetaxel (NSC628503), GDC-1971 (RLY-1971, NSC841576), gemcitabine (NSC613327), inavolisib (NSC800729), ipatasertib (NSC767898), KB-0742 (NSC834161), MRTX-1133 (NSC836407), osimertinib (NSC779217), RMC-4630 (NSC839698), RMC-6236 (NSC851965), RMC-6291 (NSC852671), Ro-3306 (NSC812927), sapanisertib (NSC764658), SN-38 (NSC673596), staurosporine (NSC755774), SY5609 (NSC837396), and tovorafenib (DAY101, NSC766906), were obtained from the National Cancer Institute (NCI) Developmental Therapeutics Program Chemical Repository. The FDA-approved anticancer drug set is available from the NCI Developmental Therapeutics Program. […] The stock solutions were prepared in dimethyl sulfoxide (DMSO, Sigma-Aldrich, St. Louis, MO, cat. D2650) at 800-fold the tested concentration and stored at -70 degrees C prior to their use. All drugs and investigational agents were tested over a range starting from a high concentration at or near the clinical Cmax and decreasing in half-log increments. If the clinical Cmax for an agent had not been determined, the highest concentration tested was 10 microM.
Cell Culture. All cells were maintained in an incubator at 37 degrees C and 5% CO2 with 95% humidity. The PDC lines were cultured according to standard operating procedures established by the NCI PDMR. All PDCs were thawed and cultured in Matrigel-coated flasks prepared with a working solution of 1X Ham's F-12 nutrient mix, without supplementation (Invitrogen, Waltham, MA, cat. 11765054), 100 U/mL penicillin-streptomycin (Invitrogen, cat. 15140122), and 2.5% Matrigel (Corning Inc., Corning, NY, cat. 354248) for the first three passages. The 362531-283-R-J2-PDC and 782815-120-R-J1-PDC lines were cultured in 6C/Colon 1B media, which includes advanced DMEM/F-12 (Thermo Fisher Scientific, cat. 12634028), 10 mM HEPES (Thermo Fisher Scientific, cat. 15630080), 1X GlutaMAX supplement (Thermo Fisher Scientific, cat. 35050061), 0.1 mg/mL primocin (InvivoGen, San Diego, CA, cat. ant-pm-2), 10% defined fetal bovine serum, heat inactivated (HyClone Laboratories Inc., Logan, UT, cat. SH30070.03HI), 50% L-WRN conditioned media (ATCC, cat. CRL-3276), 1.25 mM N-Acetyl-L-cysteine (Sigma-Aldrich, cat. A9165), 10 mM nicotinamide (Sigma-Aldrich, cat. N0636), 1X B-27 supplement (Thermo Fisher Scientific, cat. 17504044), 1X N-2 supplement (Thermo Fisher Scientific, cat. 17502048), 50 ng/mL human EGF (Thermo Fisher Scientific, cat. PHG0311), and 10 microM Y-27632 dihydrochloride (Tocris Bioscience, cat. 1254). The K12877-001-R-J1-PDC line was cultured in 6I media, which includes all 6C/Colon 1B media plus 10 ng/mL human FGF-10 (PeproTech, cat. 100-26), 1 ng/mL human FGF-2 (PeproTech, cat. 100-18B), 1 µM prostaglandin E2 (Tocris Bioscience, cat. 2296), […] hydrocortisone (Sigma-Aldrich, cat. H4001), and […] bovine insulin (Sigma-Aldrich, cat. I6634). The K86415-001-R-J1-PDC line was cultured in 6D media, which includes all 6C/Colon 1B media components minus the L-WRN conditioned media. The 485176-168-R4-J1-PDC was cultured in PANC media, which includes all 6C/Colon 1B media plus 100 ng/mL human FGF-10 (PeproTech, cat. 100-26), 500 nM SB-431542 (Selleckchem, cat. S1067), and 10 nM gastrin (Tocris Bioscience, cat. 3006). […]
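Also: spheroids exposed to compound for seven days before viability readout.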

CC(Nc1ccc2c(c1)OCCn1cc(N3C(=O)OCC3C(F)F)nc1-2)C(N)=O (configuration not stated) + C#Cc1c(F)ccc2cc(O)cc(-c3ncc4c(N5CC6CCC(C5)N6)nc(OCC56CCCN5CC(F)C6)nc4c3F)c12
< 31.6 nM: IC50 (second compound 10 µM)
44.2 nM: IC50 (second compound 1 µM)
91.7 nM: IC50 (second compound 0.1 µM)
71 nM: IC50 (second compound 3.16 µM)
70 nM: IC50 (second compound 0.316 µM)
inactive: viability, T/C (second compound 0.0316 µM, first compound 0.0316 µM) 78.3% | viability, T/C (second compound 0.0316 µM, first compound 0.1 µM) 43.2% | viability, T/C (second compound 0.0316 µM, first compound 0.316 µM) 37.1% | viability, T/C (second compound 0.0316 µM, first compound 1 µM) 11.6% | viability, T/C (second compound 0.0316 µM, first compound 3.16 µM) 11.7% | viability, T/C (second compound 0.1 µM, first compound 0.0316 µM) 80.4% | viability, T/C (second compound 0.1 µM, first compound 0.1 µM) 39.4% | viability, T/C (second compound 0.1 µM, first compound 0.316 µM) 39.1% | viability, T/C (second compound 0.1 µM, first compound 1 µM) 19.9% | viability, T/C (second compound 0.1 µM, first compound 3.16 µM) 12.7% | viability, T/C (second compound 0.1 µM, first compound 10 µM) 11.2% | viability, T/C (second compound 0.316 µM, first compound 0.0316 µM) 71% | viability, T/C (second compound 0.316 µM, first compound 0.1 µM) 39.7% | viability, T/C (second compound 0.316 µM, first compound 0.316 µM) 26.8% | viability, T/C (second compound 0.316 µM, first compound 1 µM) 16.9% | viability, T/C (second compound 0.316 µM, first compound 3.16 µM) 15.3% | viability, T/C (second compound 0.316 µM, first compound 10 µM) 13.7% | viability, T/C (second compound 1 µM, first compound 0.0316 µM) 51.8% | viability, T/C (second compound 1 µM, first compound 0.1 µM) 45.9% | viability, T/C (second compound 1 µM, first compound 0.316 µM) 25.5% | viability, T/C (second compound 1 µM, first compound 1 µM) 12.4% | viability, T/C (second compound 1 µM, first compound 3.16 µM) 16.2% | viability, T/C (second compound 1 µM, first compound 10 µM) 10.6% | viability, T/C (second compound 3.16 µM, first compound 0.0316 µM) 63.5% | viability, T/C (second compound 3.16 µM, first compound 0.1 µM) 42.7% | viability, T/C (second compound 3.16 µM, first compound 0.316 µM) 30.5% | viability, T/C (second compound 3.16 µM, first compound 1 µM) 12.9% | viability, T/C (second compound 3.16 µM, first compound 3.16 µM) 12.8% | viability, T/C (second compound 3.16 µM, first compound 10 µM) 13.5% | viability, T/C (second compound 10 µM, first compound 0.0316 µM) 35.9% | viability, T/C (second compound 10 µM, first compound 0.1 µM) 28.3% | viability, T/C (second compound 10 µM, first compound 0.316 µM) 9.51%
90 nM: IC50 (second compound 0.0316 µM)
active: viability, T/C (second compound 0.0316 µM, first compound 10 µM) 11.8% | viability, T/C (second compound 10 µM, first compound 1 µM) 4.69% | viability, T/C (second compound 10 µM, first compound 3.16 µM) 5.91% | viability, T/C (second compound 10 µM, first compound 10 µM) 2.82%

Reference: PubChem BioAssay AID2060904 (Molecular Pharmacology Branch, DTP, NCI, 2025)
